This is an account of results in ChEMBL document CHEMBL1201862, “PubChem BioAssay data set” (2004).

The test system of experiment [1] is Candida albicans. Kind of experiment: resistant Candida growth with fluconazole co-treatment – CaCi-8 strain, Alamar Blue, dry powder, set 3, dose response (AID 488905). It is filed as functional, organism-based. On the technique in general: The colour change of resazurin is a common sign of viable cells or microbes.
For experiment [2], the system named is Candida albicans. As to the kind of experiment: Candida growth inhibition combined with fluconazole – CaCi-2 strain, Alamar Blue, dry powder, set 3, dose response (AID 488907). It is filed as functional, organism-based.
Experiment [3] relates to Candida albicans. Kind of experiment: Candida growth effect without fluconazole – C. albicans CaCi-2, dry powder, counter-screen for antifungal drug resistance project, dose response (AID 488802). In kind it is functional, organism-based. In general terms: The purpose of a counterscreen is to sort out artefacts and off-target activity.
Experiment [4] is described as follows: NIH-3T3 fibroblast cytotoxicity, dose response, cytotoxicity control, cell-based, fluorescence, Alamar Blue, secondary assay (AID 2327).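 Further: NIH-3T3 mouse fibroblasts cultured with fluconazole at 8 µg/mL.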 It is filed as functional.
Experiment [5] can be described thus: fluconazole-exposed Candida albicans growth modulators – fluorescence, retest, confirmation (AID 2467). It is filed as functional, cell-based.
The test system of experiment [6] is Candida albicans. As to the kind of experiment: antifungal activity against resistant Candida strain – CaCi-8, fluconazole, Alamar Blue, dry powder, dose response (AID 488807). In kind it is functional, organism-based.

The source made the active and inactive calls.

Broadly, the AC50 is the midpoint of the concentration-response curve, whichever way the signal moves. With `O=C(c1ccc(Cl)cc1)N1CCN(c2nc3ccccc3s2)CC1`, the AC50 with Candida albicans [1] was 565 nM (active); in the experiment with Candida albicans [2], 1410 nM (active).
Usually EC50 stands for the concentration giving half of the maximal effect. Turning to `CC1CCN(C(=O)Cn2c3ccccc3c3nc4n(c(=O)c32)CCS4)CC1`, the AC50 with Candida albicans [3] is 108000 nM (active); with Candida albicans [6] it was 1970 nM (active). Also, the EC50 was > 160000 nM (inconclusive) in experiment [4] and 979 nM (active) in experiment [5].
